Article PMC6891286, “Towards the Development of an In vivo Chemical Probe for Cyclin G Associated Kinase (GAK)” (Molecules, 2019)
Where two headings read alike, the source gives them in different places.

What was measured:
GAK [1] = target: T1, GAK (Homo sapiens, UniProt O14976); conditions: nanoBRET; read-out: Live Cell GAK IC50; cited from earlier work
T1 sequence (O14976 1-1311): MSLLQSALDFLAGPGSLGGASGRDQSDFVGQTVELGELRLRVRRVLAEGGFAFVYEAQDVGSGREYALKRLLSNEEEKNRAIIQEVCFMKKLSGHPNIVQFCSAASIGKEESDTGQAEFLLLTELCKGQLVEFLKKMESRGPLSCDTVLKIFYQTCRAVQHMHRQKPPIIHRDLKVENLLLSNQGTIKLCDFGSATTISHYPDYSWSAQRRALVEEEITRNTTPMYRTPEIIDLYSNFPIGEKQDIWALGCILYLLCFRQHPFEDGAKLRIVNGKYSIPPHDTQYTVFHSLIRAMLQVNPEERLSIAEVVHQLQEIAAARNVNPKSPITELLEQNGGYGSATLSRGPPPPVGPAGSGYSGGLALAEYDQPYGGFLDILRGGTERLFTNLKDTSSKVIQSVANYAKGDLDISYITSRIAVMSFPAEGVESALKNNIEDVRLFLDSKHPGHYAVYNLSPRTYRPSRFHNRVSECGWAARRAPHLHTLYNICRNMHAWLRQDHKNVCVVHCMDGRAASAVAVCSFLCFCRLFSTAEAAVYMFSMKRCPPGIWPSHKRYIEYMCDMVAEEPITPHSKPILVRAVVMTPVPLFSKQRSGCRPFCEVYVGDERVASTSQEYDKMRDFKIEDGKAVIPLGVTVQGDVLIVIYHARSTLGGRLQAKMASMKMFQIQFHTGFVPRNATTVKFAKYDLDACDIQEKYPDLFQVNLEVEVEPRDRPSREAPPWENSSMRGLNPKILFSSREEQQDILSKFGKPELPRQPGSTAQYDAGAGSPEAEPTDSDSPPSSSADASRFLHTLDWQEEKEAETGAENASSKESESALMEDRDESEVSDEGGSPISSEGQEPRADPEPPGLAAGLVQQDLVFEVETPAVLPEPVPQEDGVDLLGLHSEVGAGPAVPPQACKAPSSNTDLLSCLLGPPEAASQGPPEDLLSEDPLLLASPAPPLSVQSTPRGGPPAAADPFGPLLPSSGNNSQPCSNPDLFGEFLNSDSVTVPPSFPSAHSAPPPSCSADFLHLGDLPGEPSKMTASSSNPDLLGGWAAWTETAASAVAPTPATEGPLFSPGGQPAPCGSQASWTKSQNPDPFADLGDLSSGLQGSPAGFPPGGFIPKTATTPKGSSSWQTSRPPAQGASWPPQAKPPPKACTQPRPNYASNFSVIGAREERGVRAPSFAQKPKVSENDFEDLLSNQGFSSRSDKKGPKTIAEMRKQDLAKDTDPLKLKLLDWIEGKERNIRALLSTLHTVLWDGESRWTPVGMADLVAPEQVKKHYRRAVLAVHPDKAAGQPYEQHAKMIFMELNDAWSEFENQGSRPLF

BMP2K = BMP2K (Homo sapiens, UniProt Q9NSY1); test: NAK family TR-FRET binding displacement assay
AAK1 = AAK1 (Homo sapiens, UniProt Q2M2I8); test: NAK family TR-FRET binding displacement assay; conditions: NAK family FRET screening
STK16 [2] = target: T2, STK16 (Homo sapiens, UniProt O75716); test: NAK family TR-FRET binding displacement assay; conditions: NAK family FRET screening; read-out: Binding displacement assay STK16 Ki
Kinetic Solubility = type: physicochemical; conditions: pH 7.4, aqueous buffer, kinetic from dmso stock, PBS pH7.4 (100 µM)
GAK [3] = target: T1, GAK; test: TR-FRET ligand-binding displacement assay
[4] = mouse liver microsome metabolic stability; conditions: mouse liver microsomes; for T1/2 Ratio (+) ABT / T1/2 Ratio (−) ABT: normalized to propranolol; for T1/2 Ratio: normalization with respect to internal control (propranolol); for CLint scaled / half-life: mouse; for half-life: mean average, n = 2
Experimental: SGC-GAK-1 (1) was incubated with MLMs in the presence or absence of added NADPH, and the compound was quantified at various time points over an hour.
The metabolic stability of the 4-anilinoquinolines (8–13) were evaluated in MLMs (Table 1). Half-lives for metabolic clearance were normalized to propranolol in each experimental run to control for variations in the MLM preparations.

[5] = metabolite identification in mouse liver microsomes
Experimental: After centrifugation, the supernatant was subjected to analysis by LCMS, and structures of metabolites were assigned on the basis of their molecular weight and fragmentation pattern.
Compounds were incubated at a concentration of 10 µM with mouse liver microsomes in the presence of an excess of NADPH.
1.1. General Numbering of Metabolites
The metabolites are numbered according to their retention times in the gradient LC-MS analysis in positive […]
ion mode. […] The M number increases […]
consecutively for metabolites with increasing retention time.
To avoid confusion, labelled retention times of a metabolite peak in different injections are the same, which may lead to mismatch between labelled retention time and actual retention time.
General Strategy for Metabolite Identification
The vehicle control and study samples were injected into LC-MS with gradient elution using a Q1 scan method. Searching for potential metabolites was then performed using LightSight software (Applied Biosystems/MDS Sciex) by comparing a total ion current chromatogram of Q1 scan from a study sample with a chromatogram from the corresponding vehicle control sample. The study sample was then injected again to obtain the product ion spectra of potential metabolites using product ion scan methods. The fragmentation patterns of the potential metabolites were then compared to the fragmentation of the parent compound to elucidate the structures of the metabolites.
The assignment of fragments is shown
2.2. Identification of Metabolites in Mouse Liver Microsomal Incubation

FLT3(ITD) = test: KINOMEscan; type: binding, human; conditions: 35 at 1 µM; read-out: % inhibition
Experimental: (§1) KinomeScan Assay on 35 was performed as previously described at EuroFins DiscoverX (Fremont, CA, USA).

FLT3(ITD,F691L) = test: KINOMEscan; type: binding, human; conditions: 35 at 1 µM; read-out: % inhibition
Experimental: as §1

EGFR(L747-T751del,Sins) = test: KINOMEscan; type: binding, human; conditions: 35 at 1 µM; read-out: % inhibition
Experimental: as §1

FLT3(ITD,D835V) = test: KINOMEscan; type: binding, human; conditions: 35 at 1 µM; read-out: % inhibition
Experimental: as §1

STK16 [6] = target: T2, STK16; test: KINOMEscan; type: binding; set-up: purchased Eurofins DiscoverX (KINOMEscan); conditions: 35 at 1 µM; read-out: % inhibition
Experimental: as §1

[7] = read-out: Kinetic Solubility µM
[8] = read-out: Kinetic Solubility µg/mL
[9] = Clint (mL/min/kg) (+) ABT, (+) ABT
[10] = Clint (mL/min/kg) (−) ABT, (−) ABT
[11] = T1/2 (min), mouse liver microsomes with NADPH

T2 sequence (O75716 whole entry): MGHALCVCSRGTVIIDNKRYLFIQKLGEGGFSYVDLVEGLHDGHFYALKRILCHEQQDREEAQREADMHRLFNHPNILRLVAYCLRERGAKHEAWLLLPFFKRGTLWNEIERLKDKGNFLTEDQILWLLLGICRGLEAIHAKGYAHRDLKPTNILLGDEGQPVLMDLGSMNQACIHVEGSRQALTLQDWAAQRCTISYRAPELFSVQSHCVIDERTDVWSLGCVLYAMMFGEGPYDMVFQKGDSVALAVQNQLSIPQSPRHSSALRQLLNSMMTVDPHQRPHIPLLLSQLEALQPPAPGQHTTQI
Chain of BMP2K (Q9NSY1 whole entry): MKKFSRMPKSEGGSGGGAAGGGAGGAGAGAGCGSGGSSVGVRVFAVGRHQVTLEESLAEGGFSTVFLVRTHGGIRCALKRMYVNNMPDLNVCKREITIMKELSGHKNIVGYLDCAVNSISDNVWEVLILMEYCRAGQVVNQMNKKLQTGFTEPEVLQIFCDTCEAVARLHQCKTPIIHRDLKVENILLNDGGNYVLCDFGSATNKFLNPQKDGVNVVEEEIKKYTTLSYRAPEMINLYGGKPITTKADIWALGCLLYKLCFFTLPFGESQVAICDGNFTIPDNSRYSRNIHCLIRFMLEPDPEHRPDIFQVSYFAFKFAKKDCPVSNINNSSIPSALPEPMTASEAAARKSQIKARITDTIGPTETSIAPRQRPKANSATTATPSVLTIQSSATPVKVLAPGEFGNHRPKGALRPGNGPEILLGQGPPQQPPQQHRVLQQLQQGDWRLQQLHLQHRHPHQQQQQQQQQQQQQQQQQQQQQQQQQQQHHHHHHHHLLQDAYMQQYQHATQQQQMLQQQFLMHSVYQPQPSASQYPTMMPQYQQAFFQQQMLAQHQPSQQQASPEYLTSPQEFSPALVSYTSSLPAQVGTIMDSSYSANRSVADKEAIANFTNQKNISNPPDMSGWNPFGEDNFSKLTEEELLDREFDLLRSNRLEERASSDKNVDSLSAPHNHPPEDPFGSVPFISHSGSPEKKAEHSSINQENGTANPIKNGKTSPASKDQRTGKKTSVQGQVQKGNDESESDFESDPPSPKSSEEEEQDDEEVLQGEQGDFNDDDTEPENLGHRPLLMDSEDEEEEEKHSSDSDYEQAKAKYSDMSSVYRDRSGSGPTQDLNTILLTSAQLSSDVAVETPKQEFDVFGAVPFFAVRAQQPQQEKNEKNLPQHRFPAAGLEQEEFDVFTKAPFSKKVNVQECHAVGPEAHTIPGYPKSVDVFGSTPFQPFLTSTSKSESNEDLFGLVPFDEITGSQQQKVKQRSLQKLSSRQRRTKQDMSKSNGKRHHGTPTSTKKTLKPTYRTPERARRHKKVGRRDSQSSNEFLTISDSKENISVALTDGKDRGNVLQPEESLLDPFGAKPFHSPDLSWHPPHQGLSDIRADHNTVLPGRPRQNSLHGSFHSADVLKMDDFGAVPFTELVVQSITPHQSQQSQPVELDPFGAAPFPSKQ
Chain of AAK1 (Q2M2I8 whole entry): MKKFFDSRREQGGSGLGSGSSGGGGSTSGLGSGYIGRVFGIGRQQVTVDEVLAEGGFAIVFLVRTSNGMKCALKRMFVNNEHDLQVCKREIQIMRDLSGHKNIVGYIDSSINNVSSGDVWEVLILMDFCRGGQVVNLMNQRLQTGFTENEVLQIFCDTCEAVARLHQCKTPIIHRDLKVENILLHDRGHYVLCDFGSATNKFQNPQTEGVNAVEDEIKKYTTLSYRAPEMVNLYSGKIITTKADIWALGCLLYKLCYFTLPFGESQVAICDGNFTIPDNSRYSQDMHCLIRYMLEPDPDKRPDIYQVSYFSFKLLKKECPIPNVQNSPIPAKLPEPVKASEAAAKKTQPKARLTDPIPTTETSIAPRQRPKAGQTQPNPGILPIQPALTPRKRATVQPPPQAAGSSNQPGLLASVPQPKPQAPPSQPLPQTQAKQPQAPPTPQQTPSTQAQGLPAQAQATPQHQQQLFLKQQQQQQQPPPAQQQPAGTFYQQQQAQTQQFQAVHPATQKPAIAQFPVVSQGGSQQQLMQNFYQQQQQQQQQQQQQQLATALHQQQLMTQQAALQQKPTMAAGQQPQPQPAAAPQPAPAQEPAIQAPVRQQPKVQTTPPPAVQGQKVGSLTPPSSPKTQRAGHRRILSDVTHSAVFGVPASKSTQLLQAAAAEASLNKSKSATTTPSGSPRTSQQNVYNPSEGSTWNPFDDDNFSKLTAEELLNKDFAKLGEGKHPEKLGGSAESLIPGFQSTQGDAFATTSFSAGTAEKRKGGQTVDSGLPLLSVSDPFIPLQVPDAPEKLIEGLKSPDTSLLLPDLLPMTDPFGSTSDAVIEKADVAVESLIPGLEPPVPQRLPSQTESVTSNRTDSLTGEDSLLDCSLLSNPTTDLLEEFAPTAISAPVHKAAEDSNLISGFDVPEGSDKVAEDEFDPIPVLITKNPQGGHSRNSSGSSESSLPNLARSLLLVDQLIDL

SMILES	Ki (BMP2K)	Ki (AAK1)	Ki (STK16 [2])	solubility kinetic (Kinetic Solubility; [7])	solubility kinetic (Kinetic Solubility; [8])	T1/2 Ratio (+) ABT ([4]; (+) ABT)	T1/2 Ratio (−) ABT ([4]; (−) ABT)	T1/2 Ratio [4]	CLint scaled [4, 9]	CLint scaled [4, 10]	half-life ([4]; T1/2 (min) (+) ABT, (+) ABT)	half-life ([4]; T1/2 (min) (−) ABT, (−) ABT)	half-life [4, 11]	further results
COc1cc2nccc(Nc3cc(OC)c(OC)c(OC)c3)c2cc1OC [Compound 8]	63 µM	28 µM	> 100 µM	128 µM	47.6 µg/mL	14.7	1.3	1.6	< 28 mL/min/kg	320 mL/min/kg	> 200 min	18 min	12.2 min	IC50 (GAK [1]): 0.025 µM; Ki (GAK [3]; NAK family FRET screening, read-out: Binding displacement assay GAK Ki): 0.00054 µM; Primary Metabolism Site [5]: Aniline
Brc1ccc2nccc(Nc3ccc4cn[nH]c4c3)c2c1 [Compound 35, 6-Bromo-N-(1H-indazol-6-yl)quinolin-4-amine]	6.5 µM	2.1 µM	7.4 µM	12.3 µM	4.2 µg/mL	17.5	9.8	9.8	35 mL/min/kg	120 mL/min/kg	170 min	46 min	45.6 min	activity (FLT3(ITD)): 97%; activity (FLT3(ITD,F691L)): 100%; activity (EGFR(L747-T751del,Sins)): 100%; activity (FLT3(ITD,D835V)): 100%; Ki (GAK [3]; TR-FRET assay, read-out: Biochemical GAK Ki): 0.02 µM; activity at 1 µM (STK16 [6]): 98%; T1/2 ratios fold higher than 9 [4]: ≥ 2 fold
